ChEMBL document CHEMBL1208733, “Benzylisoquinoline alkaloids from the tubers of Corydalis ternata and their cytotoxicity” (Bioorg Med Chem Lett, 2010)

How the values were obtained:
Assay type in all cases: functional, cell-based
A549 = test: Cytotoxicity against human A549 cells by SRB assay
SK-MEL-2 = test: Cytotoxicity against human SK-MEL-2 cells by SRB assay
HCT-15 = test: Cytotoxicity against human HCT15 cells by SRB assay
SK-OV-3 = test: Cytotoxicity against human SKOV3 cells by SRB assay

SMILES | IC50 (A549) | IC50 (SK-MEL-2) | IC50 (HCT-15) | IC50 (SK-OV-3)
CN1CCc2cc3c(cc2[C@@H]1Cc1ccc2c(c1C(=O)O)OCO2)OCO3 | > 30 µM | > 30 µM | 27.8 µM | > 30 µM
COc1ccc(C[C@@H]2c3cc(O)c(OC)cc3CCN2C)cc1O [(R)-RETICULINE] | > 30 µM | > 30 µM | 26.8 µM | > 30 µM
COc1ccc(C[C@H]2c3cc(O)c(OC)cc3CCN2C)cc1O [(S)-RETICULINE] | > 30 µM | > 30 µM | 29.4 µM | > 30 µM
COc1ccc2cc3[n+](cc2c1OC)CCc1cc2c(cc1-3)OCO2 [BERBERINE CHLORIDE] | 6.27 µM | 13.8 µM | 16.6 µM | 16.4 µM
COc1cc2c(cc1O)C1Cc3ccc4c(c3CN1CC2)OCO4 (stereo not given) [CHEILANTHIFOLINE] | 20.6 µM | 22.2 µM | 29.8 µM | 27.4 µM
c1c2c(cc3c1OCO3)-c1cc3ccc4c(c3c[n+]1CC2)OCO4 [COPTISINE CHLORIDE] | 24 µM | > 30 µM | 29.1 µM | > 30 µM
COc1cc2c(cc1OC)C1Cc3ccc(O)c(OC)c3CN1CC2 (stereo not given) [CORYDALMINE] | > 30 µM | 27.2 µM | 26.4 µM | 28.5 µM
O=C(O)c1c(C[C@@H]2NCCc3cc4c(cc32)OCO4)ccc2c1OCO2 [CORYTERNATINE A] | > 30 µM | > 30 µM | 23.3 µM | > 30 µM
COc1ccc(C[C@@H]2NCCc3cc4c(cc32)OCO4)c(C(=O)O)c1OC [CORYTERNATINE B] | > 30 µM | > 30 µM | 24.6 µM | > 30 µM
COc1ccc(C[C@H]2NCCc3cc4c(cc32)OCO4)c(C(=O)O)c1OC [CORYTERNATINE C] | > 30 µM | > 30 µM | 27.6 µM | > 30 µM
COc1cc2c(cc1OC)C1Cc3ccc(O)c(O)c3CN1CC2 (stereo not given) [DEMETHYLCORYDALMINE] | 8.34 µM | 7.87 µM | 2.86 µM | 5.14 µM
COc1cccc2c1C(=O)c1c(O)c3c(c(O)c1C2=O)C[C@@](O)(C(=O)CO)C[C@@H]3O[C@H]1C[C@H](N)[C@H](O)[C@H](C)O1 [DOXORUBICIN] | – | 0.012 µM | 0.038 µM | 0.003 µM
COc1ccc2c(c1OC)CN1CCc3cc4c(cc3C1C2)OCO4 (stereo not given) [TETRAHYDROBERBERINE] | > 30 µM | 27.9 µM | > 30 µM | > 30 µM
COc1c(O)ccc2cc3[n+](cc12)CCc1cc2c(cc1-3)OCO2 [THALIFENDINE] | 28.3 µM | 25.7 µM | > 30 µM | > 30 µM
